The source made the active and inactive calls.
Experiments:
[1] = inhibitors of firefly luciferase expression or activity, dose response, H4 neuroglioma cells, luminescence (AID 1990); format: functional, cell-based
[2] = Luminescence Cell-Based Dose Response HTS to Identify Inhibitors of 5'UTR Stem-Loop Driven Prion Protein mRNA Translation in H4 Neuroglioblastoma Cells. [Related pubchem assays: 1827 (Project Summary), 1813 (Primary HTS)]; format: functional
[3] = molecular target: Glucose-6-phosphate 1-dehydrogenase (Homo sapiens, UniProt P11413); assay: human G6PD enzyme inhibitors, dose response, selectivity assay for P. falciparum G6PD inhibitor project, biochemical, fluorescence (AID 504792); format: functional
[4] = molecular target: T1, Microphthalmia-associated transcription factor (Homo sapiens, UniProt O75030); assay: TRPM1 promoter luciferase signal decrease, dose response, MITF inhibitor project, cell-based, SK-MEL-5, cherry-picked, set 3 (AID 493073); format: functional
T1 sequence (O75030 whole entry): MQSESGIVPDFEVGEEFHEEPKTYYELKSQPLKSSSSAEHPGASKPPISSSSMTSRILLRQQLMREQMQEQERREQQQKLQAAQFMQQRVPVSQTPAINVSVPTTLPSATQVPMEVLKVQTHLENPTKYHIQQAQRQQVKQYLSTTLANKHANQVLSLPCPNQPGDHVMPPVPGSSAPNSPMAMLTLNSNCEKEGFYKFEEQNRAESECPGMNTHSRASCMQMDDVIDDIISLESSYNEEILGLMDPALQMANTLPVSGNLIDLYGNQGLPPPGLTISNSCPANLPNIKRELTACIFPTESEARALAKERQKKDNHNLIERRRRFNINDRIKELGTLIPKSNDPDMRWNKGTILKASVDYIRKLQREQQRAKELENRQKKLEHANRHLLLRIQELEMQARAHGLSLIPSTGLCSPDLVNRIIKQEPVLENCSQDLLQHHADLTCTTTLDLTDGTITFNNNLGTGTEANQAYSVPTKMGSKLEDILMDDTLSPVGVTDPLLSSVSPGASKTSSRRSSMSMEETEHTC

[5] = inhibitors of SNCA 5'UTR-driven reporter translation, confirmation, H4 neuroglioma cells, luminescence (AID 1988); format: functional, cell-based
HEK293 = assay: inhibitors of LMP1-driven NF-kB reporter, dose response, cell-based, HEK293, luciferase, cherry-pick (AID 588343); format: functional; settings: Homo sapiens
[6] = NIH-3T3 fibroblast cytotoxicity, dose response, cytotoxicity control, cell-based, fluorescence, Alamar Blue, secondary assay (AID 2327); format: functional;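 further: NIH-3T3 mouse fibroblasts cultured with fluconazole at 8 µg/mL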
[7] = THP-1 cell cytotoxicity, dose response, cytotoxicity control for non-replicating M. tuberculosis project (AID 489025); format: functional
[8] = HepG2 cell cytotoxicity, dose response, cytotoxicity control for non-replicating M. tuberculosis project (AID 489018); format: functional; settings: Mycobacterium tuberculosis
cells [9] = format: functional, cell-based
cells [10] = format: functional, cell-based; remark: listed apart in the source
Aminopeptidase N = molecular target: T2, Aminopeptidase N (Plasmodium falciparum FcB1/Columbia, UniProt O96935); assay: P. falciparum M1AAP inhibitors, biochemical, fluorogenic H-Leu-NHMec substrate, 1536-well (AID 1445); set-up: species or system Plasmodium falciparum 3D7, 3D7
T2 sequence (O96935 whole entry): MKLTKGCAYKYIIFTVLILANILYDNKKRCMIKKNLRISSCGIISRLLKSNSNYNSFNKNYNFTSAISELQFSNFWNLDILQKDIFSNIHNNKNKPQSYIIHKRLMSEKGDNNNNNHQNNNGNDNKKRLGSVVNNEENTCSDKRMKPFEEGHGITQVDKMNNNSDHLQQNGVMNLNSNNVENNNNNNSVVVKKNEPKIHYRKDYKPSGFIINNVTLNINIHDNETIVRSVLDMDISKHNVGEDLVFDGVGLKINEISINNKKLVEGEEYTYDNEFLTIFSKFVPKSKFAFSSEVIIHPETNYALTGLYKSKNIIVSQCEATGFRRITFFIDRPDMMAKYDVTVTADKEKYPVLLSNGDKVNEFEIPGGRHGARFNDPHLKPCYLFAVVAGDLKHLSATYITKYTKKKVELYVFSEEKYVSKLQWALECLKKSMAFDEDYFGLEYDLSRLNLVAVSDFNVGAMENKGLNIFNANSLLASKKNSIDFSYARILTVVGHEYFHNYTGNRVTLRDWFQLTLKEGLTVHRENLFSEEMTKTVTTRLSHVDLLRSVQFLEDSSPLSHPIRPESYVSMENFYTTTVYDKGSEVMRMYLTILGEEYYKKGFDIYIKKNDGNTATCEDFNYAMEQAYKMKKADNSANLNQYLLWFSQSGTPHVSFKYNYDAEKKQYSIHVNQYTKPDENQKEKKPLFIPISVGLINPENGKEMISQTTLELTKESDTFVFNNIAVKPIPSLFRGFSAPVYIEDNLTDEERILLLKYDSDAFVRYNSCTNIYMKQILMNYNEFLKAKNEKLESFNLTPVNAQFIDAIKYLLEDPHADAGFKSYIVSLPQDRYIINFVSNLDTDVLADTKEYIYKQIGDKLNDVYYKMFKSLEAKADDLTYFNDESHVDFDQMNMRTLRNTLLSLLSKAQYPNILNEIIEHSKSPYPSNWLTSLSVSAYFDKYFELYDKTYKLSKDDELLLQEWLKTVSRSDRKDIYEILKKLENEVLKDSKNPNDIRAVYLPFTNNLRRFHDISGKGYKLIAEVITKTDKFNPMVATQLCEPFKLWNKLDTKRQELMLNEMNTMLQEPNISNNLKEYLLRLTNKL

[11] = Vero E6 cell cytotoxicity, dose response, cytotoxicity control for non-replicating M. tuberculosis project, secondary assay (AID 492998); format: functional, VeroE6; settings: Vero C1008
[12] = C. albicans growth with fluconazole, confirmation, fluorescence, retest (AID 2467); format: functional, cell-based
[13] = molecular target: T3, Polyadenylate-binding protein 1 (Homo sapiens, UniProt P11940); assay: PABP1 MLLE–PAM2 binding inhibitor potency, dose response, biochemical, fluorescence polarization, FITC-PAM2 peptide (AID 602259); format: functional; settings: read-out: IC50_Mean
[14] = molecular target: T3, Polyadenylate-binding protein 1; assay: PABP1 MLLE–PAM2 interaction inhibitors, dose response, miRNA deadenylation inhibitor project, biochemical, fluorescence polarization, Cy5-PAM2 peptide, secondary (AID 602260); format: functional; settings: read-out: IC50_Mean
INS1 = assay: beta cell apoptosis inhibitors, cytokine rescue, dose response, luminescence, retest (AID 449756); format: functional, cell-based; settings: Rattus norvegicus;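 further: cell death triggered by IL-1 beta plus TNF-alpha plus IFN-gamma mixture; protective hits raise ATP signal compared with cytokine alone wells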

T3 sequence (P11940 whole entry): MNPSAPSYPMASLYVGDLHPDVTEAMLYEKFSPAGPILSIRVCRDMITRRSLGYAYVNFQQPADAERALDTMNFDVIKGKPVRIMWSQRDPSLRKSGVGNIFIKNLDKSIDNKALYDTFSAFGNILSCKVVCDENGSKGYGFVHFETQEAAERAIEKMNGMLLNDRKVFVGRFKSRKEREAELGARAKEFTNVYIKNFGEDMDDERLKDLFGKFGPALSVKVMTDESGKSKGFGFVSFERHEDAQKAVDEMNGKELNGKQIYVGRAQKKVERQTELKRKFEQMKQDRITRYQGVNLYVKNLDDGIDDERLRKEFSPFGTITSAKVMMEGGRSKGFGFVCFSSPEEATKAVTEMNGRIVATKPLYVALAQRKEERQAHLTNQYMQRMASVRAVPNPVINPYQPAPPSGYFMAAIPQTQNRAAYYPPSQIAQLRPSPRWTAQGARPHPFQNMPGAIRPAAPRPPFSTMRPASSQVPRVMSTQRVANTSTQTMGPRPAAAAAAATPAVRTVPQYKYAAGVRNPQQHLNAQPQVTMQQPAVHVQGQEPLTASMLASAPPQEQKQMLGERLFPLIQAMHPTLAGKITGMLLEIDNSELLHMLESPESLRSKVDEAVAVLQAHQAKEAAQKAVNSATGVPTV
Chain of Glucose-6-phosphate 1-dehydrogenase (P11413 whole entry): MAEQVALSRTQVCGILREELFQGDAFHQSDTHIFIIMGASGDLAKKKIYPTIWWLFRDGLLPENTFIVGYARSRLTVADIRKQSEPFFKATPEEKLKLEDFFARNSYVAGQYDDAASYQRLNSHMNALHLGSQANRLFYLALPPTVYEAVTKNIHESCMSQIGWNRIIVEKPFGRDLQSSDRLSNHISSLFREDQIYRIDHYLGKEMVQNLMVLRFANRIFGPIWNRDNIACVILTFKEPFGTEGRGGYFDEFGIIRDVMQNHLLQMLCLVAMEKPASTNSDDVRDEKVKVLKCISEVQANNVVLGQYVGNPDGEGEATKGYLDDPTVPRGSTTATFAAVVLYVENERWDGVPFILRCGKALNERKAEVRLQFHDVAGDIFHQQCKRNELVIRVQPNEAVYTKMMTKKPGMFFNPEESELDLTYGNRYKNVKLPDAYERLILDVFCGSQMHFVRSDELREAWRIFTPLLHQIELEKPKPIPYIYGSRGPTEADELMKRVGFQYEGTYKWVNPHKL

Structure (SMILES) | EC50 [1] | EC50 [2] | EC50 [5] | AC50 (HEK293) | IC50 [13] | IC50 [14] | other results
CCN1CCCC1CNC(=O)c1ccc2c(c1)NC(=O)/C(=C\c1ccc(C)cc1)S2 (stereo not drawn) | > 120 µM (not active) | 16 µM (active) | > 120 µM (not active) |  |  |  | IC50 [3]: > 80 µM (inactive); AC50 [4]: 18.9 µM (active)
O=C(N/N=C/c1cc(Br)ccc1O)c1ccccc1Cl |  |  |  | 18.9 µM (active) |  |  | EC50 [6]: > 160 µM (inactive); CC50 [7]: 2.16 µM (active); CC50 [8]: 8.07 µM (active); EC50 (cells [9]): 103 µM (active); EC50 (cells [10]): > 350 µM (not active); IC50 (Aminopeptidase N): 8.06 µM (active); CC50 [11]: 6.98 µM (active); EC50 [12]: > 38 µM (not active)
O=C(/C=C/Nc1cccc(C(F)(F)F)c1)C(F)(F)F |  |  |  | > 350 µM (inactive) |  |  | 
CCn1c(N)c(C(=O)NC2CCCCC2)sc1=S |  |  |  |  | > 66 µM (inactive) | > 66 µM (inactive) | 
Cc1ccc(C2CC2C(=O)NN=C(S)Nc2ccc(Cl)cc2)cc1 (stereo not drawn) |  |  |  |  | > 66 µM (inactive) | > 66 µM (inactive) | 
C(=N\Nc1nc2ccccc2[nH]1)/c1cccc2nccnc12 | 18.5 µM (active) | 9.69 µM (active) | 5.54 µM (active) | 105 µM (active) |  |  | EC50 (cells [9]): > 350 µM (not active); EC50 (cells [10]): > 350 µM (not active)
O=C(CCS(=O)(=O)c1ccccc1)Nc1nccs1 |  |  |  | 48.6 µM (active) |  |  | 
NC(=S)N/N=C/c1c(O)ccc2ccccc12 | 24.5 µM (active) | 22.8 µM (active) | 11.6 µM (active) |  | > 66 µM (inactive) | > 66 µM (inactive) | AC50 (INS1): 1.09 µM (active)
COc1ccccc1N1CCN(C(=O)CCC(=O)N2CCN(c3ccc(F)cc3)CC2)CC1 |  |  |  | 186 µM (active) |  |  | 
